This note sets out measurements from paper PMC12844237, “A Novel Quinolone JH62 (E-2-(Tridec-4-en-1-yl)-quinolin-4(1H)-one) from Pseudomonas aeruginosa Exhibits Potent Anticancer Activity” (Microorganisms, 2025).

Assay [1] concerns A549 cells. Description: Mitochondria JC-1 staining (mitochondrial membrane potential). Type of assay: cell-based, human. Conditions: A549, 25 μM, red fluorescence decreasing within 2–3 h, lowest by 4 h. How it is done:
Mitochondrial membrane potential and mitochondria localization were assessed by JC-1 and MitoTracker staining based on previously published methods. A549 cells were cultured at 37 °C and 5% CO2 in Dulbecco’s modified Eagle’s medium (DMEM), supplemented with 10% heat-inactivated FBS (Thermo Fisher Scientific, Waltham, MA, USA) and L-Glutamine (Thermo Fisher Scientific, Waltham, MA, USA) (2 mM). An aliquot of 1 mL of JH62 (25 μM) solution was added to the cell cultures. […] Cells were washed with dilution buffer, and photos were taken using a microscope. For MitoTracker staining, cells grown on 12 mm diameter round glass coverslips in 24-well plates were incubated with MitoTracker Red diluted 1:2000 or 1:20,000 from a stock solution (1 mM) in culture medium for 45 min at 37 °C. Cells were then washed with PBS and fixed with ice-cold 3.2% paraformaldehyde in PBS for 20 min at room temperature. After washing, coverslips were mounted on glass slides using an appropriate mounting medium. […]
In cancer cells, mitochondria serve as central organelles for energy production and survival, critically influencing cell viability, immune evasion, tumor progression, and therapy resistance. […] We used the potential-sensitive fluorescent probe JC-1, which emits green fluorescence as a monomer at low concentrations and forms red-fluorescent aggregates in mitochondria with intact ΔΨm.

Assay [2] relates to WI-38: human lung fibroblast cell lines. In words: WST-1 cell viability, WI-38. Type of assay: cell-based. As to conditions: WI-38, non-cancer cell line. The source says:
(§1) Different cells were utilized as follows: MEF: murine embryonic fibroblast (RRID: CVCL_L690); AML12: mouse liver cell lines (RRID: CVCL_0140); WI-38: human lung fibroblast cell lines (RRID: CVCL_0579); THLE-2: human liver epithelial cell lines (RRID: CVCL_3803); A549: human lung cancer cell lines (RRID: CVCL_0023); HEPG2: human liver cancer cell lines (RRID: CVCL_0027); HEP3B: human hepatoma cell lines (RRID: CVCL_0326); BxPC3: human pancreatic cancer cell lines (RRID: CVCL_0186); U87: human primary glioblastoma cell lines (RRID: CVCL_0022); DU145: human prostate cancer cell lines (RRID: CVCL_0105); MCF7: human breast cancer cell lines (RRID: CVCL_0031); HeLa: human cervical cancer cell lines (RRID: CVCL_0030); HCT116: human colon cancer cell lines (RRID: CVCL_0291). Cells were maintained in Dulbecco’s modified Eagle’s medium (DMEM, Gibco) supplemented with L-glutamine (Lonza) (2 mM), 10% fetal bovine serum (FBS, Hyclone), 1 × non-essential amino acids, and sodium pyruvate (1 mM). THLE-2 cells were maintained in THLE-2 Cell Complete Medium (Zhong Qiao Xin Zhou, Shanghai, China). Cells were incubated at 37 °C in a humidified incubator with 5% CO2. […]
(§2) Cell viability was assessed using the WST-1 assay, based on a previously reported method with slight modifications. […] Absorbance at OD450 was measured using a microplate reader (Synergy H1; BioTek Instruments, Winooski, VT, USA).

The test system of assay [3] is MCF7: human breast cancer cell lines. Description: WST-1 cell viability, MCF7. As to conditions: MCF7 (breast) cancer cell line. Type of assay: cell-based.
Source text: as §1, §2
(In general: Formazan colour is commonly taken as a measure of viable cells.)

For assay [4], the system named is BxPC3: human pancreatic cancer cell lines. In words: WST-1 cell viability, BxPC3. The class given is cell-based. As to conditions: BXPC-3, BxPC3 (pancreatic) cancer cell line.
Source text: as §1, §2

The test system of assay [5] is cancer cell lines. In words: WST-1 cell viability, panel of cancer cell lines. The class given is cell-based. As to conditions: Homo sapiens; across the tested cancer cell lines. The protocol:
Cell viability was assessed using the WST-1 assay, based on a previously reported method with slight modifications. Briefly, cells were seeded at 1 × 10^4 cells per well in 96-well plates and then treated with different doses of JH62 or DOX for 0–72 h. The cells used included non-cancer cells (MEF, AML12, WI-38, and THLE-2) and cancer cells (A549, HEPG2, HEP3B, BxPC3, U87, DU145, MCF7, HeLa, and HCT116). The WST-1 reagent (Roche, Shanghai, China) was added to each well (10% vol/vol final concentration), followed by incubation for 3 h at 37 °C. Absorbance at OD450 was measured using a microplate reader (Synergy H1; BioTek Instruments, Winooski, VT, USA).

Assay [6] relates to U87: human primary glioblastoma cell lines. Description: WST-1 cell viability, U87. The class given is cell-based. As to conditions: U87 (glioblastoma) cancer cell line.
Source text: as §1, §2

With `CCCCCCCC/C=C/CCCc1cc(=O)c2ccccc2[nH]1` [JH62, E-2-(tridec-4-en-1-yl)-quinolin-4(1H)-one], the “mitochondrial membrane potential (JC-1 red fluorescence)” value in assay [1] is reported as “disrupted the mitochondrial membrane potential”. The IC50 in assay [2] was 44.1 ± 0.4 µM; in assay [3], 13.9 ± 1.3 µM; in assay [4], 15 ± 0.4 µM; in assay [5], under 20 µM; in assay [6], 10 ± 0.2 µM.

For orientation: IC50 means the point on the concentration scale where inhibition reaches its midpoint.
